Assay results taken from US6337326B1, “N-aryl-(homopiperazinyl)-cyclohexyl amines” (American Home Products Corporation, priority 1999, dated 2002).
Structures can show the parent of a compound that is named as a salt.

Columns and labels:
5-HT transporter = molecular target: T1, 5-HT transporter (Rattus norvegicus, UniProt P31652); assay: Rat Brain 3H-Paroxetine Binding Assay (RB 5HT Transporter); details: frontal cortical membranes from male S.D. rats, 3H-paroxetine 0.1 nM, 60 min, 25° C.
T1 construct: from tissue; host or cells: frontal cortical membranes of male Sprague-Dawley rats
Protocol: Rat Brain ^3H-Paroxetine Binding Assay (RB 5HT Transporter)
The following assay was used to determine a compound's affinity of the 5-HT transporter.
A protocol similar to that used by Cheetham et. al. (Neuropharmacol. 1993, 32, 737) was used. Briefly, frontal cortical membranes prepared from male S.D. rats were incubated with ^3H-parxetine (0.1 nM) for 60 min. at 25° C. All tubes also contained either vehicle, test compound (one to eight concentrations), or a saturating concentration of fluoxetine (10 μM) to define […]. All reactions are terminated by the addition of ice cold Tris buffer followed by rapid filtration using a Tom Tech filtration device to separate bound from free ^3H-paroxetine. Bound radioactivity was quantitated using a Wallac 1205 Beta Plate® counter. Nonlinear regression analysis was used to determine IC50 values which were converted to Ki values using the method of Cheng and Prusoff (Biochem. Pharmacol. 1973, 22, 3099); [formula]

Human 5-HT Transporter = molecular target: T2, Human 5-HT Transporter (Homo sapiens, UniProt P31645); assay: Inhibition of 3H-5-HT Uptake by cells Possessing the Human 5-HT Transporter (HC 5-HT Transporter); assay type: cell-based; details: Jar cells (human carcinoma) treated with staurosporine, 37° C., 5 min
T2 construct: endogenous in cells; host or cells: Jar cells (human carcinoma cell line), treated with staurosporine
Protocol: [Staurosporine greatly increases the expression of the 5-HT-transporter.] On the day of assay, vehicle, excess of fluoxetine, or test compound is added to various wells on the plate. All wells then receive ^3H-5-HT and are incubated at 37° C. for 5 min. The wells are then washed with ice cold 50 mM Tris HCl (pH 7.4) buffer and aspirated to remove free ^3H-5-HT. 25 μl of 0.25 M NaOH is then added to each well to lyse the cells and 75 μl scintillation cocktail (Microscint™ 20) added prior to quantitation on a Packard TopCount machine. Tubes with vehicle represent total possible uptake, radioactivity counted in tubes with fluoxetine represent nonspecific binding/uptake and is subtracted from the total possible uptake to give total possible specific uptake. This nonspecific binding (usual low in number) is then subtracted from the counts obtained in wells with various test compounds (or different concentrations of test drug) to give specific uptake in the presence of drug. Specific uptake is then expressed as a % of control values and is analyzed using nonlinear regression analysis (Prizm) to determine IC50 values. If the compound is active at inhibiting 5-HT uptake, its counts will be close to that obtained with fluoxetine.

T2 sequence (P31645 whole entry): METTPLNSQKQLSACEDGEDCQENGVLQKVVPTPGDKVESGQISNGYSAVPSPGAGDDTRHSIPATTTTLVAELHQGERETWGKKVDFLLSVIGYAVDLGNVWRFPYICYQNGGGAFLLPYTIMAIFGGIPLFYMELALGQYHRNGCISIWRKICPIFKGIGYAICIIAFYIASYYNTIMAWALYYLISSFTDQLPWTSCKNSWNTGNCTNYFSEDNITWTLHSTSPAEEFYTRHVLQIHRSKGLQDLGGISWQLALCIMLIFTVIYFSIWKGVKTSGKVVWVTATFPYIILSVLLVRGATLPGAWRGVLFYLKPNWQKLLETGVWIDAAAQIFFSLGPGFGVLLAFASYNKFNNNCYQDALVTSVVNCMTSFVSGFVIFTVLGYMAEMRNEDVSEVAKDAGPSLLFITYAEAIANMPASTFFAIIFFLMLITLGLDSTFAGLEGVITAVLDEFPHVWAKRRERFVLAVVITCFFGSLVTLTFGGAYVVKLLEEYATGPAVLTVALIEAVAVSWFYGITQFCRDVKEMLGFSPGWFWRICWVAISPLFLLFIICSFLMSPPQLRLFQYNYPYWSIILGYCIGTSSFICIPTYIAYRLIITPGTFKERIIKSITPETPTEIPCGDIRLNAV
T1 sequence (P31652 whole entry): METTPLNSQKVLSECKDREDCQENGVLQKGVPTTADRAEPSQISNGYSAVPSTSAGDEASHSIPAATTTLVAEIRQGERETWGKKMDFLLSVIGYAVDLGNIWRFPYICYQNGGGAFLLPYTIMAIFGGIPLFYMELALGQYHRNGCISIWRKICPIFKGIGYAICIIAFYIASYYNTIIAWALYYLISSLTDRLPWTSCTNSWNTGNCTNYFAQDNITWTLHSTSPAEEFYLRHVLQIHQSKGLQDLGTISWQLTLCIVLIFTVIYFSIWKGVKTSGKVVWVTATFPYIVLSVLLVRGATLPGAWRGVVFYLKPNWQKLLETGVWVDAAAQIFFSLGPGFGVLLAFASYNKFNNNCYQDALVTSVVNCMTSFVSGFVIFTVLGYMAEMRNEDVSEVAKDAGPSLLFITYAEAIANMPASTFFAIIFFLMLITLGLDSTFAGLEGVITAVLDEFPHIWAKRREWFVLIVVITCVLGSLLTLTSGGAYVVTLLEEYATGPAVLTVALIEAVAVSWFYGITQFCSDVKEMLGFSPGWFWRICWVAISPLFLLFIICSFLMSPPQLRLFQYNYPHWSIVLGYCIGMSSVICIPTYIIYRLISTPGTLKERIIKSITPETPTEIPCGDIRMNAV

| Compound | melting point | Ki (5-HT transporter) | IC50 (Human 5-HT Transporter) |
| --- | --- | --- | --- |
| COc1ccccc1N1CCCN(C2CCC(c3c[nH]c4ccccc34)CC2)CC1 (stereo not shown) (as salt: hydrochloride) [Example 1, 3-{4-[4-(2-Methoxy-phenyl)-[1,4]diazepan-1-yl]-cyclohexyl}-1H-indole] | 148 to 160 °C |  |  |
| Fc1ccc2[nH]cc(C3CCC(N4CCCN(c5cccc(C(F)(F)F)c5)CC4)CC3)c2c1 (stereo not shown) [Example 9, 3-{4-[4-(3-Trifluoromethyl-phenyl)-[1,4]diazepan-1-yl]-cyclohexyl}-5-fluoro-1H-indole] |  | 86 nM | 4470 nM |
| COc1ccccc1N1CCCN(C2CCC(c3c[nH]c4ccc(C#N)cc34)CC2)CC1 (stereo not shown) [Example 4] |  | 27 nM |  |
| N#Cc1ccc2[nH]cc(C3CCC(N4CCCN(c5cccc6cccnc56)CC4)CC3)c2c1 (stereo not shown) [Example 7, 8-{4-[4-(5-Cyano-1H-indol-3-yl)-cyclohexyl]-[1,4]diazepan-1-yl}-quinoline] |  | 11 nM |  |
| COc1ccccc1N1CCCN(C2CCC(c3c[nH]c4ccccc34)CC2)CC1 (stereo not shown) [Example 1, 3-{4-[4-(2-Methoxy-phenyl)-[1,4]diazepan-1-yl]-cyclohexyl}-1H-indole] |  | 42 nM | 578 nM |
| N#Cc1ccc2[nH]cc(C3CCC(N4CCCN(c5cccc(C(F)(F)F)c5)CC4)CC3)c2c1 (stereo not shown) [Example 10] |  | 207 nM | 3760 nM |
| Fc1ccc2[nH]cc(C3CCC(N4CCCN(c5cccc6cccnc56)CC4)CC3)c2c1 (stereo not shown) [Example 6, 8-{4-[4-(5-Fluoro-1H-indol-3-yl)-cyclohexyl]-[1,4]diazepan-1-yl}-quinoline] |  | 9 nM | 602 nM |
| COc1ccccc1N1CCCN(C2CCC(c3c[nH]c4ccc(F)cc34)CC2)CC1 (stereo not shown) [Example 3, 3-{4-[4-(2-Methoxy-phenyl)-[1,4]diazepan-1-yl]-cyclohexyl}-5-fluoro-1H-indole] |  | 12 nM | 1140 nM |

Results, then the compound that gave them:

| melting point | Ki (5-HT transporter) | IC50 (Human 5-HT Transporter) | Compound |
| --- | --- | --- | --- |
|  | 2.7 nM | 317 nM | Fc1ccc2c(C3CCC(N4CCCN(c5cccc6cccnc56)CC4)CC3)c[nH]c2c1 (stereo not shown) [Example 8, 8-{4-[4-(6-Fluoro-1H-indol-3-yl)-cyclohexyl]-[1,4]diazepan-1-yl}-quinoline] |
|  | 27 nM | 1280 nM | Fc1ccc2c(C3CCC(N4CCCN(c5cccc(C(F)(F)F)c5)CC4)CC3)c[nH]c2c1 (stereo not shown) [Example 11, 3-{4-[4-(3-Trifluoromethyl-phenyl)-[1,4]diazepan-1-yl]-cyclohexyl}-6-fluoro-1H-indole] |
|  | 4.9 nM | 272 nM | COc1ccccc1N1CCCN(C2CCC(c3c[nH]c4cc(F)ccc34)CC2)CC1 (stereo not shown) [Example 5, 3-{4-[4-(2-Methoxy-phenyl)-[1,4]diazepan-1-yl]-cyclohexyl}-6-fluoro-1H-indole] |
| 152 to 165 °C |  |  | c1cnc2c(N3CCCN(C4CCC(c5c[nH]c6ccccc56)CC4)CC3)cccc2c1 (stereo not shown) (as salt: hydrochloride) [Example 2, 8-{4-[4-(1H-Indol-3-yl)-cyclohexyl]-[1,4]diazepan-1-yl}-quinoline] |
|  | 9 nM | 399 nM | c1cnc2c(N3CCCN(C4CCC(c5c[nH]c6ccccc56)CC4)CC3)cccc2c1 (stereo not shown) [Example 2, 8-{4-[4-(1H-Indol-3-yl)-cyclohexyl]-[1,4]diazepan-1-yl}-quinoline] |
